Measured values published in patent US12036189B2, “Method of treating major depressive disorder” (priority 2018, dated 2024).

How the values were obtained:
[1] = test system: animal models of depression; settings: cited from earlier work
[2] = test system: human peripheral blood lymphocytes (HPBL)
Description: The clastogenic potential of esketamine was evaluated in the in vitro mammalian chromosome aberration test using human peripheral blood lymphocytes (HPBL) in both the absence and presence of an induced metabolic activation system (the 9000 g supernatant [S9] microsomal fraction of liver homogenate from rats exposed to Aroclor-1254).
The study was conducted in 2 phases, with a preliminary toxicity test used to determine the appropriate concentrations for the definitive chromosomal aberration assay. Water was used as a negative (vehicle) control. Toxicity (defined as ≥45% reduction in MI relative to the vehicle control) was evaluated at 9 concentrations, ranging from 0.0238 to 238 μg/ml, after exposure of HPBL to esketamine for 20 hours in the absence of S9 activation, or for 4 hours, either in the presence or absence of S9 activation, followed by a 16-hour recovery period.
The definitive chromosome aberration assay evaluated HPBL cells after exposure to esketamine for 20 hours in the absence of S9 activation, or for 4 hours, either in the presence of absence of S9 activation, followed by a 16-hour recovery. Positive controls for chromosomal aberrations in non-activated and S9-activated evaluations, respectively, consisted of mitomycin C (MMC, 0.6 and 0.3 μg/mL for the 4- and 20-hour exposures, respectively) and cyclophosphamide (CP, 2.5, 5, and 7.5 μg/mL). […] Initially, the doses selected for evaluation of chromosomal aberrations were 60, 120, and 238 μg/mL for the non-activated 4- and 20-hour treatment conditions; and 30, 60, and 200 μg/mL for the S9-activated 4-hour treatment condition.

[3] = Repeated dose 28 day study, toxicokinetics; settings: male rats, Day 28
Description: The objective of the study was to assess the potential toxicity, neurobehavioral effects, and toxicokinetics (TK) of esketamine when administered orally, via gavage, to Sprague Dawley rats for 28 days and to evaluate recovery during a 14-day drug-free period. Fifty male and 50 female rats were randomized into 4 groups (15/sex/Groups 1 and 4; 10/sex/Groups 2 and 3). Esketamine was administered via oral gavage once daily for 28 consecutive days to males at 0 (vehicle control), 6, 10 or 30 mg/kg/day and females at 0 (vehicle control), 2, 10 or 20 mg/kg/day in a dose volume of 10 mL/kg. Animals were observed until euthanized and necropsied on Day 29 (10/sex/group) or 43 (5/sex from Groups 1 and 4). Toxicity was evaluated based on mortality, clinical observations, body weights, food consumption, ophthalmology, motor activity, functional observational battery, clinical pathology (clinical chemistry, hematology, coagulation and urinalysis), organ weights, anatomic (macroscopic or microscopic) pathology. Toxicokinetic animals (3/sex/Group 1; 6/sex/Groups 2, 3, and 4) were similarly dosed and bled on Day 1 and during Week 4 for toxicokinetic analysis.

[4] = Single dose, randomized, open-label crossover study, pharmacokinetics; settings: esketamine hydrochloride, 15 subjects
Source text: A randomized, open-label 4-way crossover study in 16 healthy male and female subjects was held wherein said subjects were placed in a randomly assigned order and administered esketamine. Each subject was assigned to 1 of 4 treatment sequences according to a randomization code such that 4 subjects were assigned to each treatment sequence. There was a wash-out period of at least 7 days between dosing periods with dosing consisting of either oral or intravenous esketamine hydrochloride. The study consisted of an eligibility screening period of 28 days, 4 study periods involving administration of a single dose of esketamine hydrochloride followed by safety assessments with blood sampling for PK purposes up to 72 hours after study drug administration, discharge at 72 hours after study drug administration and a follow-up visit 7-14 days after the last PK blood sample was taken on Day 4.

liver of Crl:CD(SD) rats = assay: In vivo single cell gel electrophoresis (comet) assay, DNA strand breaks in the liver
[5] = test system: human peripheral blood lymphocytes (HPBL); remark: listed apart in the source
Description: The study was conducted in 2 phases, with a preliminary toxicity test used to determine the appropriate concentrations for the definitive chromosomal aberration assay. Water was used as a negative (vehicle) control. In both phases, the cells were treated for 3 and 21 hours in the absence of S9 mix and for 3 hours in the presence of S9 mix. The mitotic index was assessed for all cultures to determine cytotoxicity. Ten concentrations, ranging from 2.62 to 260.16 μg/mL, were evaluated in the preliminary toxicity test. […] S-Norketamine concentrations of 93.66, 156.10 or 260.16 μg/mL were selected for metaphase analysis.

**Q.** Which “psychotomimetic side effects and abuse liability” value [1] does the source give for `CN[C@@]1(c2ccccc2Cl)CCCCC1=O` [(R)-ketamine, (2R)-2-(2-Chlorophenyl)-2-(methylamino) cyclohexanone] here?
**A.** without psychotomimetic side effects and abuse liability

**Q.** For `O=P1(N(CCCl)CCCl)NCCCO1` (stereo not shown) [CP, cyclophosphamide], which “structural aberrations, % of the cells” value ([2]; S9-activated system, positive control 2.5, 5 and 7.5 μg/mL) is on record?
**A.** 10.7%

**Q.** With `CN[C@]1(c2ccccc2Cl)CCCCC1=O` [esketamine, (2S)-2-(2-Chlorophenyl)-2-(methylamino) cyclohexanone] as the compound, how does the “Toxicity (≥45% reduction in MI relative to the vehicle control)” value [2] read?
**A.** not observed at any dose

**Q.** And the “doses at which cytotoxicity (≥45% reduction in mitotic index) was observed” value ([2]; human)?
**A.** ≥ 200 µg/mL

**Q.** And the t1/2 ([3]; 10 mg/kg oral gavage)?
**A.** 36 min

**Q.** And the AUC0-t ([3]; 30 mg/kg oral gavage)?
**A.** 575 ng·h/mL

**Q.** What about the “AUC0-inf, Geometric mean” value ([4]; 0.3 mg/kg iv) of the same compound?
**A.** 257.14 ng·h/mL

**Q.** And the “AUC0-t, Geometric mean” value ([4]; 0.3 mg/kg iv)?
**A.** 249.15 ng·h/mL

**Q.** What about the “Cmax, Geometric mean” value ([4]; 0.3 mg/kg iv) of the same compound?
**A.** 94.50 ng/mL

**Q.** What about the “t1/2, Geometric mean” value ([4]; 0.3 mg/kg iv) of the same compound?
**A.** 10.16 h

**Q.** And the “tmax, Median” value ([4]; 0.3 mg/kg iv)?
**A.** 60 min

**Q.** And the “AUC0-inf, Geometric mean” value ([4]; 20 mg oral solution)?
**A.** 25.82 ng·h/mL

**Q.** And the “AUC0-t, Geometric mean” value ([4]; 20 mg oral solution)?
**A.** 23.44 ng·h/mL

**Q.** And the “Cmax, Geometric mean” value ([4]; 20 mg oral solution)?
**A.** 16.48 ng/mL

**Q.** What about the “t1/2, Geometric mean” value ([4]; 20 mg oral solution) of the same compound?
**A.** 2.91 h

**Q.** What about the “tmax, Median” value ([4]; 20 mg oral solution) of the same compound?
**A.** 30 min

**Q.** What about the “AUC0-inf, Geometric mean” value ([4]; 20 mg oral tablet) of the same compound?
**A.** 22.46 ng·h/mL

**Q.** And the “AUC0-t, Geometric mean” value ([4]; 20 mg oral tablet)?
**A.** 20.05 ng·h/mL

**Q.** What about the “tmax, Median” value ([4]; 20 mg oral tablet) of the same compound?
**A.** 45 min

**Q.** What about the “t1/2, Geometric mean” value ([4]; 20 mg oral) of the same compound?
**A.** 2.84 h

**Q.** And the “AUC0-inf, Geometric mean” value ([4]; 100 mg oral tablet)?
**A.** 180.84 ng·h/mL

**Q.** What about the “AUC0-t, Geometric mean” value ([4]; 100 mg oral tablet) of the same compound?
**A.** 172.71 ng·h/mL

**Q.** And the “Cmax, Geometric mean” value ([4]; 100 mg oral tablet)?
**A.** 65.34 ng/mL

**Q.** What about the “tmax, Median” value ([4]; 100 mg oral tablet) of the same compound?
**A.** 45 min

**Q.** And the “t1/2, Geometric mean” value ([4]; 100 mg oral)?
**A.** 7.66 h

**Q.** What about the “median % TI in the liver vs vehicle control” value (liver of Crl:CD(SD) rats; female rats, 25 and 50 mg/kg/day oral gavage, three doses, p<0.001) of the same compound?
**A.** Statistically significant increases

**Q.** What about the “DNA strand breaks in the liver (study conclusion)” value (liver of Crl:CD(SD) rats; male and female rats, oral gavage) of the same compound?
**A.** evidence of causing an increase in DNA strand breaks

**Q.** What about the “median % tail intensity (TI) in the liver vs vehicle control” value (liver of Crl:CD(SD) rats; male rats, 75 mg/kg/day oral gavage, three doses, p<0.001) of the same compound?
**A.** Statistically significant increases

**Q.** And the “macroscopic examination after 3 doses” value (liver of Crl:CD(SD) rats; rat, in vivo)?
**A.** no test item related lesions

**Q.** Which results are given for `N[C@]1(c2ccccc2Cl)CCCCC1=O` [S-norketamine]?
**A.** Toxicity (mitotic index) [5]: not observed at any dose; induction of structural and numerical chromosomal aberrations [5]: negative
